{"source": "patent US7371773B2", "about": "“Breast cancer resistance protein (BCRP) inhibitor” (Kabushiki Kaisha Yakult Honsha, priority 2003, dated 2008)", "assay_type_in_all_cases": "cell-based, human", "key": {"[1]": {"tested_on": "A549 cell line", "test": "Anticancer drug sensitivity test, A549 cell line", "details": "culturing 48 hours", "procedure": "(§1) The A549 cell line or each of the A549/SN-38-1 to 6 was suspended in 10% FBS/Ham's F-12, and the resultant suspension was inoculated into a 96-well microplate, followed by culturing at 5% CO2 and 37° C. overnight. Thereafter, a solution of an anticancer drug in 10% FBS/Ham's F-12 (50 μL) was added to each of the wells, followed by culturing at 5% CO2 and 37° C. for 48 hours. After completion of culturing, the number of viable cells was counted by use of a viable cell counting reagent [TetraColor ONE (trade name), product of Seikagaku Corporation] according to the attached instruction manual. […] “Relative resistance value” is obtained by dividing the IC50 for an A549/SN-38 cell line by the IC50 for the A549 cell line. The greater the relative resistance value, the higher the level of acquired resistance."}, "[2]": {"tested_on": "A549/SN-38-1 cell line", "test": "Anticancer drug sensitivity test, A549/SN-38-1", "procedure": "(§2) Human non-small cell lung cancer A549 cell line was subcultured at 5% CO2 and 37° C. by use of a Ham's F-12 medium containing 10% FBS, 100 U/mL of penicillin, and 100 μg/mL of streptomycin (10% FBS/Ham's F-12). SN-38-resistant A549 cell lines were selected by subculturing the A549 cell line in a medium for two months while the concentration of SN-38 contained in the medium was increased in a stepwise manner (4 to 10 ng/mL). Subsequently, the resultant SN-38-resistant A549 cell lines were subjected to cloning by means of limiting dilution, to thereby establish six cloned SN-38-resistant A549 cell lines (A549/SN-38-1 to 6).\nas §1"}, "[3]": {"tested_on": "A549/SN-38-2 cell line", "test": "Anticancer drug sensitivity test, A549/SN-38-2", "procedure": "as §2, §1"}, "[4]": {"tested_on": "A549/SN-38-3 cell line", "test": "Anticancer drug sensitivity test, A549/SN-38-3", "procedure": "as §2, §1"}, "[5]": {"tested_on": "A549/SN-38-4 cell line", "test": "Anticancer drug sensitivity test, A549/SN-38-4", "procedure": "as §2, §1"}, "[6]": {"tested_on": "A549/SN-38-5 cell line", "test": "Anticancer drug sensitivity test, A549/SN-38-5", "procedure": "as §2, §1"}, "[7]": {"tested_on": "A549/SN-38-6 cell line", "test": "Anticancer drug sensitivity test, A549/SN-38-6", "procedure": "as §2, §1"}, "[8]": {"tested_on": "A549/SN-38 cell lines", "test": "Anticancer drug sensitivity test, A549/SN-38 cell lines as a group", "details": "BCRP substrates"}, "[9]": {"tested_on": "A549/SN-38-4 cell line", "test": "Amount of anticancer drug accumulated in A549/SN-38 cell line", "details": "SN-38 300 ng/mL, 37° C., 60 minutes"}}}
{"smiles": "CCc1c2c(nc3ccc(O)cc13)-c1cc3c(c(=O)n1C2)COC(=O)[C@]3(O)CC", "note": "[SN-38, 7-ethyl-10-hydroxycamptothecin]", "values": [{"measurement": "IC50", "setting": "[1]", "value": 0.013, "unit": "µg/mL"}, {"measurement": "IC50", "setting": "[2]; A549/SN-38-1, culturing 48 hours", "value": 0.12, "unit": "µg/mL"}, {"measurement": "Relative resistance value", "setting": "[2]; IC50 for A549/SN-38-1 divided by IC50 for A549", "value": "(9.2)"}, {"measurement": "IC50", "setting": "[3]; A549/SN-38-2, culturing 48 hours", "value": 0.10, "unit": "µg/mL"}, {"measurement": "Relative resistance value", "setting": "[3]; IC50 for A549/SN-38-2 divided by IC50 for A549", "value": "(7.5)"}, {"measurement": "IC50", "setting": "[4]; A549/SN-38-3, culturing 48 hours", "value": 0.13, "unit": "µg/mL"}, {"measurement": "Relative resistance value", "setting": "[4]; IC50 for A549/SN-38-3 divided by IC50 for A549", "value": "(9.7)"}, {"measurement": "IC50", "setting": "[5]; A549/SN-38-4, culturing 48 hours", "value": 0.10, "unit": "µg/mL"}, {"measurement": "Relative resistance value", "setting": "[5]; IC50 for A549/SN-38-4 divided by IC50 for A549", "value": "(7.7)"}, {"measurement": "IC50", "setting": "[6]; A549/SN-38-5, culturing 48 hours", "value": 0.10, "unit": "µg/mL"}, {"measurement": "Relative resistance value", "setting": "[6]; IC50 for A549/SN-38-5 divided by IC50 for A549", "value": "(7.7)"}, {"measurement": "IC50", "setting": "[7]; A549/SN-38-6, culturing 48 hours", "value": 0.10, "unit": "µg/mL"}, {"measurement": "Relative resistance value", "setting": "[7]; IC50 for A549/SN-38-6 divided by IC50 for A549", "value": "(7.4)"}, {"measurement": "Resistance of A549/SN-38 cell lines to the anticancer drug", "setting": "[8]", "value": "particularly strong resistance"}, {"measurement": "Amount of SN-38 accumulated in A549/SN-38-4 relative to A549 cell line", "setting": "[9]", "value": "about ⅕"}]}
